Measurements published in US5631146A, “DNA aptamers and catalysts that bind adenosine or adenosine-5'-phosphates and methods for isolation thereof” (The General Hospital Corporation, priority 1995, dated 1997).

Legend:
[1] = system: adenosine/ATP-binding single-stranded DNA aptamer (minimal ATP aptamer DH25.42, SEQ ID NO:46); assay: ATP analog elution of bound aptamer from ATP-agarose column; conditions: 3 column volumes of 1.5 mM analog
Procedure: FIG. 9A-C are graphs of exemplary elution profiles with analogs of ATP. DNA was loaded onto an ATP-agarose affinity column and washed with 10 column volumes of wash buffer. Bound DNA was then eluted with 3 column volumes of wash buffer containing 1.5 mM analog, then washed with 2 more column volumes of wash buffer; remaining DNA was then eluted in 3 column volumes of wash buffer containing 1.5 mM ATP. Data point at column volume 19 is that remaining on the column after all washes. Elution profiles with 9A. adenosine, 9B. 3-methyl adenine, and 9C. purine riboside.
FIG. 10 is a schematic diagram showing the specifity of the adenosine/ATP aptamer, as determined by analog elution experiments. ++, 85-100% of DNA eluted in 3 column volumes of 1.5 mM ligand; +, 70-84% of DNA eluted in 3 column volumes of 1.5 mM ligand; +/-, 6%-69% of DNA eluted in 3 column volumes of 1.5 mM ligand; -, <5% of DNA eluted in 3 column volumes of 1.5 mM ligand. The regions most important for binding are highlighted by the shaded boxes. […]
10-500 ng (1.2 pmol-60 pmol) of affinity purified DNA was loaded onto a 1/4 ml bed volume ATP-agarose column pre-equilibrated with column buffer. […] Each fraction was then analyzed by Cerenkov counting. […]

[2] = target: adenosine/ATP-binding single-stranded DNA aptamer (minimal ATP aptamer DH25.42, SEQ ID NO:46); assay: Kd for adenosine by analytical ultrafiltration; conditions: room temperature, column buffer (300 mM NaCl, 5 mM MgCl2, 20 mM Tris pH 7.6), 5.49 nM [3H]adenosine, average of two estimates, read-out: Kd for adenosine in solution
Procedure: Although quantitative binding data from column elution experiments is imprecise, an estimate of adenosine affinity in solution was obtained by ultrafiltration experiments (Jenison et al., Science 263:1425-1429, (1994)).
The Kd for adenosine was measured by analytical ultrafiltration (Jenison et al., Science 263:1425-1429, (1994)). In this technique bound and unbound ligand partition across a membrane in a ultra filtration device. DNA (0.06 μM-30 μM) was incubated for 5 min. at room temperature in 200 μl of column buffer containing 5.49 nM [2,8,5'^3H] adenosine. The reaction mixture was loaded onto an Microcon 10 microconcentrator (Amicon) and spun at 14000 RPM in an Eppendorf 5415 centrifuge for 4 min., resulting in 100 μl of ultrafiltrate. This method could not be used with ATP because only 30% of ATP passed through the filter in 50% of the volume. Even with adenosine, only 40-45% passed through in 50% of the volume. The Kd was estimated from the concentration of DNA calculated to decrease the amount of adenosine passing through the filter by 50%. During the course of the experiment the DNA concentration increases by a factor of two since the DNA is retained above the filter; therefore, using the initial DNA concentration would give an artificially low Kd, and using the final DNA concentration would give an artificially high Kd. The Kd reported is the average of these two estimates. […]

In the case of Nc1ncnc2c1ncn2[C@H]1O[C@H](CO)[C@@H](O)[C@H]1O [9-α-ribofuranosyladenine], the “elution of bound aptamer from the ATP-agarose column by analog” value [1] is reported as “did not elute bound aptamer”.

For Nc1ncnc2c1ncn2[C@@H]1O[C@H](CO)[C@@H](O)[C@H]1O [adenosine], the Kd [2] was 6 ± 3 µM.
